Laboratory results: patent publication US8686044B2, “Amide derivative, pest control agent containing the amide derivative, and use of the amide derivative” (Mitsui Chemicals Agro, Inc., priority 2008, dated 2014)

Key:
Type in all cases: in vivo
[1] = system: Choristoneura magnanima; assay: Pesticidal test against Choristoneura magnanima (artificial feed dip); conditions: 144 h, 2-stage larvae, examined after 6 days, 25° C., read-out: pesticidal rate; for pest or weed control at 1 ppm: concentration 1 ppm
Procedure, shortened: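 Second-stage larvae, five per group in duplicate, fed artificial diet that had been immersed 30 s in test solution at a predetermined concentration and air-dried. Mortality scored at day 6, 25° C.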

[2] = system: Adoxophyes honmai; assay: Pesticidal test against Adoxophyes honmai (artificial feed dip); conditions: 144 h, 2-stage larvae, examined after 6 days, 25° C., read-out: pesticidal rate; for pest or weed control at 10 ppm: concentration 10 ppm; for pest or weed control at 1 ppm: concentration 1 ppm
Procedure, shortened: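 Second-instar larvae, five per group in duplicate, were released onto air-dried feed slices previously immersed for 30 s in compound solution at a set concentration. Mortality was scored on day 6 at 25° C.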

[3] = system: Spodoptera litura; assay: Pesticidal test against Spodoptera litura (cabbage leaf dip); conditions: foliar, 144 h, concentration 1 ppm, 2-stage larvae, examined after 6 days, 25° C., read-out: pesticidal rate
Procedure, shortened: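 Cabbage leaf pieces dipped 30 seconds in compound solution at a predetermined concentration and air-dried, then offered to second-stage larvae, five per group in two replicates. Held at 25° C. Living and dead larvae counted after 6 days.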

[4] = system: Plutella xylostella; assay: Pesticidal test against Plutella xylostella (cabbage leaf dip); conditions: foliar, 144 h, concentration 1 ppm, 2-stage larvae, examined after 6 days, 25° C., read-out: pesticidal rate
Procedure, shortened: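 Second-stage larvae (5 per group, two replicates) were released onto air-dried cabbage leaf discs that had been immersed for 30 seconds in compound solution at a set concentration. Mortality was scored after 6 days at 25° C.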

[5] = system: Blattella germanica; assay: Pesticidal test against Blattella germanica (petri dish dry film); conditions: 24 h, concentration 100 ppm, female adults, examined after 1 day, 25° C., read-out: pesticidal rate
Procedure, shortened: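 Acetone solution of test compound at a predetermined concentration dried as a film in a 9 cm petri dish; female adult cockroaches released onto it and kept at 25° C. Living and dead counted after 1 day; five insects per group, two replicates.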

[6] = system: Helicoverpa armigera; assay: Pesticidal test against Helicoverpa armigera (cabbage leaf disk dip); conditions: foliar, 72 h, concentration 1 ppm, 2-stage larvae, examined after 3 days, 25° C., read-out: pesticidal rate
Procedure, shortened: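 Cabbage leaf disks were dipped for 30 s in test solution at a set concentration and air-dried. Second-instar larvae were placed one per hole and held at 25 °C, with live and dead counts taken after 3 days. Five larvae per group were tested in two replicates.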

[7] = system: Laodelphax striatellus; assay: Pesticidal test against Laodelphax striatellus (rice seedling spray); conditions: 144 h, concentration 100 ppm, 3-stage larvae, examined after 6 days, 25° C., read-out: pesticidal rate
Procedure, shortened: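 Rice seedlings sprayed with 2.5 ml acetone solution of compound at a predetermined concentration, air-dried, then infested with third-stage Laodelphax striatellus larvae in capped water-containing tubes at 25 °C. Living and dead insects counted after 6 days; ten larvae per group, two replicates.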

[8] = system: Musca domestica; assay: Pesticidal test against Musca domestica (petri dish dry film); conditions: 24 h, concentration 100 ppm, female adults, examined after 1 day, 25° C., read-out: pesticidal rate
Procedure, shortened: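 Female adult houseflies were confined at 25° C in capped 9 cm petri dishes coated with an air-dried film from 1 ml acetone solution of compound (predetermined concentration). Mortality was scored 1 day later, two replicates of five per group.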

N#Cc1ccc(C(=O)Nc2cccc(C(=O)Nc3c(Br)cc(C(F)(C(F)(F)F)C(F)(F)C(F)(F)F)cc3C(F)(F)F)c2)cc1 (stereo not drawn) [6-367]
≥ 70%: pest or weed control at 1 ppm [1] | pest or weed control at 10 ppm [2] | pest or weed control at 1 ppm [3] | pest or weed control at 1 ppm [4] | pest or weed control at 100 ppm [5] | pest or weed control at 1 ppm [6]

O=C(Nc1c(Br)cc(C(F)(C(F)(F)F)C(F)(F)C(F)(F)F)cc1C(F)(F)F)c1cccc(NC(=O)c2cccnc2Cl)c1 (stereo not drawn) [6-382]
≥ 70%: pest or weed control at 10 ppm ([1]; concentration 10 ppm) | pest or weed control at 1 ppm [2] | pest or weed control at 1 ppm [3] | pest or weed control at 1 ppm [4] | pest or weed control at 100 ppm [5] | pest or weed control at 1 ppm [6] | pest or weed control at 100 ppm [7] | pest or weed control at 100 ppm [8]

O=C(Nc1cccc(C(=O)Nc2c(I)cc(C(F)(C(F)(F)F)C(F)(F)F)cc2C(F)(F)F)c1)c1cccc(F)c1 [6-426]
≥ 70%: pest or weed control at 1 ppm [1] | pest or weed control at 10 ppm [2] | pest or weed control at 1 ppm [3] | pest or weed control at 1 ppm [4] | pest or weed control at 100 ppm [5] | pest or weed control at 1 ppm [6] | pest or weed control at 100 ppm [8]

O=C(Nc1cccc(C(=O)Nc2c(I)cc(C(F)(C(F)(F)F)C(F)(F)F)cc2C(F)(F)F)c1)c1ccc(F)cc1 [6-427]
≥ 70%: pest or weed control at 1 ppm [1] | pest or weed control at 1 ppm [2] | pest or weed control at 1 ppm [3] | pest or weed control at 1 ppm [4] | pest or weed control at 100 ppm [5] | pest or weed control at 1 ppm [6] | pest or weed control at 100 ppm [7] | pest or weed control at 100 ppm [8]

O=C(Nc1cccc(C(=O)Nc2c(Br)cc(C(F)(C(F)(F)F)C(F)(F)F)cc2Br)c1F)c1cccc(F)c1 [6-1106]
≥ 70%: pest or weed control at 1 ppm [1] | pest or weed control at 1 ppm [2] | pest or weed control at 1 ppm [3] | pest or weed control at 1 ppm [4] | pest or weed control at 100 ppm [5] | pest or weed control at 1 ppm [6] | pest or weed control at 100 ppm [7]

N#Cc1cccc(C(=O)Nc2cccc(C(=O)Nc3c(I)cc(C(F)(C(F)(F)F)C(F)(F)C(F)(F)F)cc3I)c2F)c1 (stereo not drawn) [6-1358]
≥ 70%: pest or weed control at 1 ppm [1] | pest or weed control at 1 ppm [2] | pest or weed control at 1 ppm [3] | pest or weed control at 1 ppm [4] | pest or weed control at 100 ppm [5] | pest or weed control at 1 ppm [6] | pest or weed control at 100 ppm [7] | pest or weed control at 100 ppm [8]

O=C(Nc1cccc(C(=O)Nc2c(Br)cc(C(F)(C(F)(F)F)C(F)(F)F)cc2C(F)(F)F)c1F)c1ccc(F)cc1 [6-1577]
≥ 70%: pest or weed control at 1 ppm [1] | pest or weed control at 10 ppm [2] | pest or weed control at 1 ppm [3] | pest or weed control at 1 ppm [4] | pest or weed control at 100 ppm [5] | pest or weed control at 1 ppm [6] | pest or weed control at 100 ppm [7] | pest or weed control at 100 ppm [8]

N#Cc1ccc(C(=O)Nc2cccc(C(=O)Nc3c(Br)cc(C(F)(C(F)(F)F)C(F)(F)F)cc3C(F)(F)F)c2F)cc1 [6-1595]
≥ 70%: pest or weed control at 1 ppm [1] | pest or weed control at 1 ppm [3] | pest or weed control at 1 ppm [4] | pest or weed control at 100 ppm [5] | pest or weed control at 1 ppm [6] | pest or weed control at 100 ppm [7]

N#Cc1ccc(C(=O)Nc2cccc(C(=O)Nc3c(I)cc(C(F)(C(F)(F)F)C(F)(F)F)cc3C(F)(F)F)c2F)cc1 [6-1751]
≥ 70%: pest or weed control at 1 ppm [1] | pest or weed control at 1 ppm [3] | pest or weed control at 1 ppm [4] | pest or weed control at 100 ppm [5] | pest or weed control at 1 ppm [6] | pest or weed control at 100 ppm [7] | pest or weed control at 100 ppm [8]

CN(C(=O)c1ccc(Cl)nc1)c1cccc(C(=O)Nc2c(Br)cc(C(F)(C(F)(F)F)C(F)(F)C(F)(F)F)cc2C(F)(F)F)c1 (stereo not drawn) [7-389]
≥ 70%: pest or weed control at 1 ppm [1] | pest or weed control at 1 ppm [3] | pest or weed control at 1 ppm [4] | pest or weed control at 100 ppm [5] | pest or weed control at 1 ppm [6] | pest or weed control at 100 ppm [7] | pest or weed control at 100 ppm [8]

CN(C(=O)c1ccccc1)c1cccc(C(=O)Nc2c(I)cc(C(F)(C(F)(F)F)C(F)(F)C(F)(F)F)cc2C(F)(F)F)c1 (stereo not drawn) [7-502]
≥ 70%: pest or weed control at 1 ppm [1] | pest or weed control at 1 ppm [2] | pest or weed control at 1 ppm [3] | pest or weed control at 1 ppm [4] | pest or weed control at 100 ppm [5] | pest or weed control at 1 ppm [6]

CN(C(=O)c1ccc(F)cc1)c1cccc(C(=O)Nc2c(I)cc(C(F)(C(F)(F)F)C(F)(F)C(F)(F)F)cc2C(F)(F)F)c1 (stereo not drawn) [7-505]
≥ 70%: pest or weed control at 1 ppm [1] | pest or weed control at 1 ppm [2] | pest or weed control at 1 ppm [3] | pest or weed control at 1 ppm [4] | pest or weed control at 100 ppm [5] | pest or weed control at 1 ppm [6]

CN(C(=O)c1ccc(F)cc1)c1cccc(C(=O)Nc2c(Br)cc(C(F)(C(F)(F)F)C(F)(F)F)cc2Br)c1F [7-1107]
≥ 70%: pest or weed control at 1 ppm [1] | pest or weed control at 1 ppm [3] | pest or weed control at 1 ppm [4] | pest or weed control at 100 ppm [5] | pest or weed control at 1 ppm [6] | pest or weed control at 100 ppm [7] | pest or weed control at 100 ppm [8]

CN(C(=O)c1ccc(C#N)cc1)c1cccc(C(=O)Nc2c(Br)cc(C(F)(C(F)(F)F)C(F)(F)F)cc2Br)c1F [7-1125]
≥ 70%: pest or weed control at 1 ppm [1] | pest or weed control at 1 ppm [3] | pest or weed control at 1 ppm [4] | pest or weed control at 100 ppm [5] | pest or weed control at 1 ppm [6] | pest or weed control at 100 ppm [7]

CN(C(=O)c1cccc(C#N)c1)c1cccc(C(=O)Nc2c(Br)cc(C(F)(C(F)(F)F)C(F)(F)F)cc2C(F)(F)F)c1F [7-1594]
≥ 70%: pest or weed control at 1 ppm [1] | pest or weed control at 1 ppm [2] | pest or weed control at 1 ppm [3] | pest or weed control at 1 ppm [4] | pest or weed control at 100 ppm [5] | pest or weed control at 1 ppm [6] | pest or weed control at 100 ppm [7]

CN(C(=O)c1ccc(C#N)cc1)c1cccc(C(=O)Nc2c(Br)cc(C(F)(C(F)(F)F)C(F)(F)F)cc2C(F)(F)F)c1F [7-1595]
≥ 70%: pest or weed control at 1 ppm [1] | pest or weed control at 1 ppm [3] | pest or weed control at 1 ppm [4] | pest or weed control at 100 ppm [5] | pest or weed control at 1 ppm [6] | pest or weed control at 100 ppm [7]

CN(C(=O)c1ccc(Cl)nc1)c1cccc(C(=O)Nc2c(Br)cc(C(F)(C(F)(F)F)C(F)(F)F)cc2C(F)(F)F)c1F [7-1617]
≥ 70%: pest or weed control at 1 ppm [1] | pest or weed control at 1 ppm [3] | pest or weed control at 1 ppm [4] | pest or weed control at 100 ppm [5] | pest or weed control at 1 ppm [6] | pest or weed control at 100 ppm [7]

CN(C(=O)c1ccccc1F)c1cccc(C(=O)Nc2c(I)cc(C(F)(C(F)(F)F)C(F)(F)F)cc2C(F)(F)F)c1F [7-1731]
≥ 70%: pest or weed control at 10 ppm [2] | pest or weed control at 1 ppm [3] | pest or weed control at 1 ppm [4] | pest or weed control at 100 ppm [5] | pest or weed control at 1 ppm [6] | pest or weed control at 100 ppm [7] | pest or weed control at 100 ppm [8]
